According to ChEMBL document CHEMBL3045941, “-Methyl as a bioisostere for the oxygen link between the aromatic rings of aryloxyphenoxypropionate herbicides” (Bioorg Med Chem Lett, 1997):
Calls of active or inactive are those of the source. The calls are words filed in the database; no cut-off is given here.

How the values were obtained:
Avena fatua [1] = test: Post-emergent herbicidal activity against Avena fatua at 100 g/ha measured after 13 days under green house conditions; assay type: functional
Zea mays [2] = test: Phytotoxicity against Zea mays (maize) plant at two to four-leaf growth stage at 100 g/ha measured after 13 days under green house conditions; assay type: organism-based; conditions: in vivo, 312 h
Zea mays [3] = test: Phytotoxicity against Zea mays (maize) plant at two to four-leaf growth stage at <2 g/ha measured after 13 days under green house conditions; assay type: organism-based; conditions: in vivo, 312 h
Sorghum halepense [4] = test: Post-emergent herbicidal activity against Sorghum halepense (Johnson grass) at 100 g/ha measured after 13 days under green house conditions; assay type: functional
Setaria viridis [5] = test: Post-emergent herbicidal activity against Setaria viridis (green foxtail) at <2 g/ha measured after 13 days under green house conditions; assay type: functional, organism-based
Triticum aestivum [6] = test: Phytotoxicity against Triticum aestivum (wheat) at two to four-leaf growth stage at 100 g/ha measured after 13 days under green house conditions; assay type: organism-based; conditions: in vivo, 312 h
Triticum aestivum [7] = test: Phytotoxicity against Triticum aestivum (wheat) at two to four-leaf growth stage at <2 g/ha measured after 13 days under green house conditions; assay type: organism-based; conditions: in vivo, 312 h
Echinochloa crus-galli [8] = test: Post-emergent herbicidal activity against Echinochloa crus-galli (barnyard grass) at <2 g/ha measured after 13 days under green house conditions; assay type: functional, organism-based
Echinochloa crus-galli [9] = test: Post-emergent herbicidal activity against Echinochloa crus-galli (barnyard grass) at 100 g/ha measured after 13 days under green house conditions; assay type: functional
Sorghum halepense [10] = test: Post-emergent herbicidal activity against Sorghum halepense (Johnson grass) at <2 g/ha measured after 13 days under green house conditions; assay type: functional, organism-based
Oryza sativa [11] = test: Phytotoxicity against Oryza sativa (rice) plant at two to four-leaf growth stage at <2 g/ha measured after 13 days under green house conditions; assay type: organism-based; conditions: in vivo, 312 h
Oryza sativa [12] = test: Phytotoxicity against Oryza sativa (rice) plant at two to four-leaf growth stage at 100 g/ha measured after 13 days under green house conditions; assay type: organism-based; conditions: in vivo, 312 h
Setaria viridis [13] = test: Post-emergent herbicidal activity against Setaria viridis (green foxtail) at 100 g/ha measured after 13 days under green house conditions; assay type: functional
Avena fatua [14] = test: Post-emergent herbicidal activity against Avena fatua at <2 g/ha measured after 13 days under green house conditions; assay type: functional, organism-based
Setaria viridis [15] = test: Post-emergent herbicidal activity against Setaria viridis (green foxtail) at 12.5 g/ha measured after 13 days under green house conditions; assay type: functional
Zea mays [16] = test: Phytotoxicity against Zea mays (maize) plant at two to four-leaf growth stage at 50 g/ha measured after 13 days under green house conditions; assay type: organism-based; conditions: in vivo, 312 h
Triticum aestivum [17] = test: Phytotoxicity against Triticum aestivum (wheat) at two to four-leaf growth stage at 12.5 g/ha measured after 13 days under green house conditions; assay type: organism-based; conditions: in vivo, 312 h
Sorghum halepense [18] = test: Post-emergent herbicidal activity against Sorghum halepense (Johnson grass) at 12.5 g/ha measured after 13 days under green house conditions; assay type: functional
Echinochloa crus-galli [19] = test: Post-emergent herbicidal activity against Echinochloa crus-galli (barnyard grass) at 12.5 g/ha measured after 13 days under green house conditions; assay type: functional
Echinochloa crus-galli [20] = test: Post-emergent herbicidal activity against Echinochloa crus-galli (barnyard grass) at 50 g/ha measured after 13 days under green house conditions; assay type: functional
Zea mays [21] = test: Phytotoxicity against Zea mays (maize) plant at two to four-leaf growth stage at 12.5 g/ha measured after 13 days under green house conditions; assay type: organism-based; conditions: in vivo, 312 h
Oryza sativa [22] = test: Phytotoxicity against Oryza sativa (rice) plant at two to four-leaf growth stage at 12.5 g/ha measured after 13 days under green house conditions; assay type: organism-based; conditions: in vivo, 312 h
Setaria viridis [23] = test: Post-emergent herbicidal activity against Setaria viridis (green foxtail) at 50 g/ha measured after 13 days under green house conditions; assay type: functional
Triticum aestivum [24] = test: Phytotoxicity against Triticum aestivum (wheat) at two to four-leaf growth stage at 50 g/ha measured after 13 days under green house conditions; assay type: organism-based; conditions: in vivo, 312 h
Sorghum halepense [25] = test: Post-emergent herbicidal activity against Sorghum halepense (Johnson grass) at 50 g/ha measured after 13 days under green house conditions; assay type: functional
Avena fatua [26] = test: Post-emergent herbicidal activity against Avena fatua at 12.5 g/ha measured after 13 days under green house conditions; assay type: functional
Avena fatua [27] = test: Post-emergent herbicidal activity against Avena fatua at 50 g/ha measured after 13 days under green house conditions; assay type: functional
Oryza sativa [28] = test: Phytotoxicity against Oryza sativa (rice) plant at two to four-leaf growth stage at 50 g/ha measured after 13 days under green house conditions; assay type: organism-based; conditions: in vivo, 312 h
[29] = target: Acetyl-CoA carboxylase (Hordeum vulgare) (UniProt Q3V4F7+Q3V4I7+Q947J4+Q947J5+Q40010+Q5S741+Q5S747); test: Inhibition of acetyl-CoA carboxylase in Hordeum vulgare (barley) leaves; assay type: protein assay
Triticum aestivum [30] = test: Phytotoxicity against Triticum aestivum (wheat) at two to four-leaf growth stage at 5 g/ha measured after 13 days under green house conditions; assay type: organism-based; conditions: in vivo, 312 h
Echinochloa crus-galli [31] = test: Post-emergent herbicidal activity against Echinochloa crus-galli (barnyard grass) at 5 g/ha measured after 13 days under green house conditions; assay type: functional
Avena fatua [32] = test: Post-emergent herbicidal activity against Avena fatua at 5 g/ha measured after 13 days under green house conditions; assay type: functional
Zea mays [33] = test: Phytotoxicity against Zea mays (maize) plant at two to four-leaf growth stage at 5 g/ha measured after 13 days under green house conditions; assay type: organism-based; conditions: in vivo, 312 h
Oryza sativa [34] = test: Phytotoxicity against Oryza sativa (rice) plant at two to four-leaf growth stage at 5 g/ha measured after 13 days under green house conditions; assay type: organism-based; conditions: in vivo, 312 h
Sorghum halepense [35] = test: Post-emergent herbicidal activity against Sorghum halepense (Johnson grass) at 5 g/ha measured after 13 days under green house conditions; assay type: functional
Setaria viridis [36] = test: Post-emergent herbicidal activity against Setaria viridis (green foxtail) at 5 g/ha measured after 13 days under green house conditions; assay type: functional
Zea mays [37] = test: Phytotoxicity against Zea mays (maize) plant at two to four-leaf growth stage at 250 g/ha measured after 13 days under green house conditions; assay type: organism-based; conditions: in vivo, 312 h
Triticum aestivum [38] = test: Phytotoxicity against Triticum aestivum (wheat) at two to four-leaf growth stage at 250 g/ha measured after 13 days under green house conditions; assay type: organism-based; conditions: in vivo, 312 h
Avena fatua [39] = test: Post-emergent herbicidal activity against Avena fatua at 250 g/ha measured after 13 days under green house conditions; assay type: functional
Setaria viridis [40] = test: Post-emergent herbicidal activity against Setaria viridis (green foxtail) at 250 g/ha measured after 13 days under green house conditions; assay type: functional
Oryza sativa [41] = test: Phytotoxicity against Oryza sativa (rice) plant at two to four-leaf growth stage at 250 g/ha measured after 13 days under green house conditions; assay type: organism-based; conditions: in vivo, 312 h
Echinochloa crus-galli [42] = test: Post-emergent herbicidal activity against Echinochloa crus-galli (barnyard grass) at 250 g/ha measured after 13 days under green house conditions; assay type: functional
Sorghum halepense [43] = test: Post-emergent herbicidal activity against Sorghum halepense (Johnson grass) at 250 g/ha measured after 13 days under green house conditions; assay type: functional
Echinochloa crus-galli [44] = test: Post-emergent herbicidal activity against Echinochloa crus-galli (barnyard grass) at 500 g/ha measured after 13 days under green house conditions; assay type: functional
Triticum aestivum [45] = test: Phytotoxicity against Triticum aestivum (wheat) plant at two to four-leaf growth stage at 500 g/ha measured after 13 days under green house conditions; assay type: organism-based; conditions: in vivo, 312 h
Avena fatua [46] = test: Post-emergent herbicidal activity against Avena fatua at 500 g/ha measured after 13 days under green house conditions; assay type: functional
Zea mays [47] = test: Phytotoxicity against Zea mays (maize) plant at two to four-leaf growth stage at 500 g/ha measured after 13 days under green house conditions; assay type: organism-based; conditions: in vivo, 312 h
Setaria viridis [48] = test: Post-emergent herbicidal activity against Setaria viridis (green foxtail) at 500 g/ha measured after 13 days under green house conditions; assay type: functional
Oryza sativa [49] = test: Phytotoxicity against Oryza sativa (rice) plant at two to four-leaf growth stage at 500 g/ha measured after 13 days under green house conditions; assay type: organism-based; conditions: in vivo, 312 h
Sorghum halepense [50] = test: Post-emergent herbicidal activity against Sorghum halepense (Johnson grass) at 500 g/ha measured after 13 days under green house conditions; assay type: functional

| SMILES | Activity (Zea mays [3]) | Activity (Setaria viridis [5]) | Activity (Triticum aestivum [7]) | Activity (Echinochloa crus-galli [8]) | Activity (Sorghum halepense [10]) | Activity (Oryza sativa [11]) | Activity (Avena fatua [14]) | Activity (Zea mays [16]) [%] | Activity (Echinochloa crus-galli [20]) [%] | Activity (Setaria viridis [23]) [%] | Activity (Triticum aestivum [24]) [%] | Activity (Sorghum halepense [25]) [%] | Activity (Avena fatua [27]) [%] | Activity (Oryza sativa [28]) [%] | further results |
| --- | --- | --- | --- | --- | --- | --- | --- | --- | --- | --- | --- | --- | --- | --- | --- |
| CCOC(=O)C(C)Oc1ccc(N(C)c2nc3ccccc3o2)cc1 (racemic) | Non-toxic | inactive | Non-toxic | inactive | inactive | Non-toxic | inactive |  |  |  |  |  |  |  | Activity (Avena fatua [1]): 70%; Activity (Zea mays [2]): 100%; Activity (Sorghum halepense [4]): 100%; Activity (Triticum aestivum [6]): 85%; Activity (Echinochloa crus-galli [9]): 100%; Activity (Oryza sativa [12]): 30%; Activity (Setaria viridis [13]): 85% |
| CCOC(=O)C(C)Oc1ccc(N(C)c2ncc3cc(Cl)ccc3n2)cc1 (racemic) | Non-toxic | inactive | Non-toxic | inactive | inactive | Non-toxic | inactive | 65 | 85 | 98 | 65 | 98 | 15 | 35 | Activity (Setaria viridis [15]): 65%; Activity (Triticum aestivum [17]): 35%; Activity (Sorghum halepense [18]): 65%; Activity (Echinochloa crus-galli [19]): 98%; Activity (Zea mays [21]): 15%; Activity (Oryza sativa [22]): 0%; Activity (Avena fatua [26]): 0%; Activity [29]: 1.5 µM |
| CCOC(=O)C(C)Oc1ccc(Oc2cnc3cc(Cl)ccc3n2)cc1 (racemic) [QUIZALOFOP ETHYL ESTER] | Non-toxic | inactive | Non-toxic | inactive | inactive | Non-toxic | inactive | 100 | 100 | 100 | 85 | 100 | 85 | 70 | Activity (Triticum aestivum [30]): 85%; Activity (Echinochloa crus-galli [31]): 70%; Activity (Avena fatua [32]): 30%; Activity (Zea mays [33]): 85%; Activity (Oryza sativa [34]): 50%; Activity (Sorghum halepense [35]): 85%; Activity (Setaria viridis [36]): 70% |
| COC(=O)C(C)Oc1ccc(N(C)c2nnc3cc(Cl)ccc3n2)cc1 (racemic) | Non-toxic | inactive | Non-toxic | inactive | inactive | Non-toxic | inactive | 85 | 100 | 100 | 85 | 100 | 85 | 85 | Activity (Triticum aestivum [30]): 70%; Activity (Echinochloa crus-galli [31]): 0%; Activity (Avena fatua [32]): 50%; Activity (Zea mays [33]): 70%; Activity (Oryza sativa [34]): 0%; Activity (Sorghum halepense [35]): 50%; Activity (Setaria viridis [36]): 100% |
| CCOC(=O)C(C)Oc1ccc(Oc2ncc(Cl)cn2)cc1 (racemic) | Non-toxic | inactive | Non-toxic | inactive | inactive | Non-toxic | inactive |  |  |  |  |  |  |  | Activity (Zea mays [37]): 85%; Activity (Triticum aestivum [38]): 70%; Activity (Avena fatua [39]): 85%; Activity (Setaria viridis [40]): 85%; Activity (Oryza sativa [41]): 70%; Activity (Echinochloa crus-galli [42]): 85%; Activity (Sorghum halepense [43]): 85% |
| CCCCOC(=O)C(C)Oc1ccc(Oc2ccc(C(F)(F)F)cn2)cc1 (racemic) | Non-toxic | inactive | Non-toxic | inactive | inactive | Non-toxic | inactive | 85 | 85 | 85 | 70 | 85 | 85 | 50 |  |
| COC(=O)C(C)Oc1ccc(N(C)c2ncc(Cl)cn2)cc1 (racemic) | Non-toxic | inactive | Non-toxic | inactive | inactive | Non-toxic | inactive |  |  |  |  |  |  |  | Activity (Zea mays [37]): 85%; Activity (Triticum aestivum [38]): 85%; Activity (Avena fatua [39]): 85%; Activity (Setaria viridis [40]): 85%; Activity (Oryza sativa [41]): 70%; Activity (Echinochloa crus-galli [42]): 100%; Activity (Sorghum halepense [43]): 85% |
| CCOC(=O)C(C)Oc1ccc(Oc2nc3ccc(Cl)cc3o2)cc1 (racemic) [FENOXAPROP-ETHYL] | Non-toxic | inactive | Non-toxic | inactive | inactive | Non-toxic | inactive | 85 | 100 | 100 | 0 | 100 | 85 | 70 |  |
| CCOC(=O)C(C)Oc1ccc(N(C)c2cc3ccc(Cl)cc3cn2)cc1 (racemic) | Non-toxic | inactive | Non-toxic | inactive | inactive | Non-toxic | inactive |  |  |  |  |  |  |  | Activity (Echinochloa crus-galli [44]): 100%; Activity (Triticum aestivum [45]): 85%; Activity (Avena fatua [46]): 70%; Activity (Zea mays [47]): 100%; Activity (Setaria viridis [48]): 85%; Activity (Oryza sativa [49]): 0%; Activity (Sorghum halepense [50]): 85% |
| COC(=O)C(C)Oc1ccc(Oc2ccc(Cl)cc2Cl)cc1 (racemic) [DICLOFOP-METHYL] | Non-toxic | inactive | Non-toxic | inactive | inactive | Non-toxic | inactive |  |  |  |  |  |  |  | Activity (Echinochloa crus-galli [44]): 100%; Activity (Triticum aestivum [45]): 0%; Activity (Avena fatua [46]): 70%; Activity (Zea mays [47]): 85%; Activity (Setaria viridis [48]): 100%; Activity (Oryza sativa [49]): 0%; Activity (Sorghum halepense [50]): 70% |
